Where two headings read alike, the source gives them in different places.
Columns and labels:
[1] = tested on: patients with idiopathic PD and levodopa induced dyskinesias (LIDs)
Description: At the time the study was performed (2009), there was no FDA accepted instrument for measuring treatment efficacy for LIDs. Therefore, several secondary objectives were utilized to assess efficacy including the Unified Dyskinesia Rating Scale (UDysRS).
A total of 65 male and female subjects with idiopathic PD with LIDs were randomized in the study. The study consisted of 4 phases (FIG. 6A): screening phase (up to 3 weeks), double-blind treatment phase (10 weeks), taper phase (2 weeks), and follow-up phase (2 weeks). The approximate duration of the study for each subject was 17 weeks. […] During the double-blind treatment phase, dosing was begun at Visit 0 at 1 mg every 6 hours (total daily dose [TDD] = 4 mg/day) and escalated upwards at 2-week intervals as follows: 2 mg every 6 hours (TDD = 8 mg/day) at Visit 1 (Week 2); 4 mg every 6 hours (TDD = 16 mg/day) at Visit 2 (Week 4); 6 mg every 6 hours (TDD = 24 mg/day) at Visit 3 (Week 6). Subjects were maintained on 24 mg/day for 4 weeks. The subsequent taper phase (2 weeks total), beginning at Visit 4 (Week 10), consisted of 9 days of drug taper and 5 days off drug prior to Visit 5 (final safety visit). […] Ondansetron was provided by the sponsor and dispensed with each dose escalation step with instructions to use it for nausea and vomiting only during the first 4 days following dose initiation or escalation. […] No other dose down-titration was allowed. Table 5. Dose Escalation Schedule
A total of 65 patients with idiopathic PD and levodopa induced dyskinesias (LIDs) were randomized. Patients were required to have a diagnosis of idiopathic PD and be within a Hoehn & Yahr Stage II - IV while in a peak "ON" state(levodopa in a therapeutic range). They had to have moderate to severely disabling LIDs for at least 25% of the waking day, as determined by Questions 32 and 33 in Part II of the UPDRS and a Mini-Mental State Examination (MMSE) score of ≥26. Patients with atypical Parkinson disorders, prior deep brain stimulation (DBS), unstable angina, a history of ventricular arrhythmias, or active peptic ulcer or a history of schizophrenia, schizoaffective disorder, or bipolar disease were excluded. Patients who actively smoked were also excluded. Table 9: Demographics
The drug, or a placebo identical in appearance and packaging, was administered orally 4 times a day in a blinded fashion. Patients were examined while in an "ON" state, when levodopa was in a therapeutic range. During the treatment phase, dosing was begun at 1 mg every 6 hours (total daily dose=4 mg/day) and escalated upwards at 2-week intervals as follows: 2 mg every 6 hours at Visit 1; 4 mg every 6 hours at Visit 2; 6 mg every 6 hours at Visit 3. Patients were maintained on 24 mg/day for 4 weeks. All patients, study site personnel, raters and the sponsor were blinded to treatment assignment.
The original UPDRS scale was used. […] In the UPDRS Part II, Question 13 is on Falling unrelated to Freezing. […] In Part II, Question 14 is on Freezing when Walking. This is a 5-point item and has two variables freezing and falls. […] Questions 13 and 14 were compared separately (Table 11). […] Table 10: UPDRS Part II (ADL), UPDRS Part III (Motor Examination)
LIDs were assessed by the UDysRS, the main measure of LIDs (Table 12). […] The study was conducted in accordance with the Declaration of Helsinki and Good Clinical Practice Guidelines. All sites received approval from an institutional review board and written informed consent was obtained from each patient prior to participation. Table 12. Unified Dyskinesia Rating Scale (UDysRS)
All hypotheses were tested using 2-sided tests with alpha set at the 0.050 level of significance. In general, efficacy data were summarized by treatment group, and safety data were summarized by treatment group and overall.

[2] = tested on: patients with idiopathic PD and levodopa induced dyskinesias (LIDs); remark: listed apart in the source
Description: Efficacy was measured with the Unified Dyskinesia Rating Scale (UDysRS), a semi- quantitative assessment, FDA-validated instrument to assess gait, balance and dyskinesia in PD. […] Dosing was begun at 1 mg every 6 hours to a final dose of 24 mg per day.
All hypotheses were tested using 2-sided tests with alpha set at the 0.050 level of significance. In general, efficacy data were summarized by treatment group, and safety data were summarized by treatment group and overall. In all analyses, assumptions such as normality and homogeneity of variance were examined prior to conducting the proposed parametric statistical procedures. Categorical variables were analyzed by Fisher's exact 2- tailed test and continuous variables were tested under 2-sample t-tests. The equality of variances was examined using an F-test before applying the 2-sample t-test.

[3] = oral administration of capsules
[4] = clinical; details: human, plasma, po
[5] = Baseline to Week 10, 30 NP002 patients
[6] = Baseline to Week 10, minus = improvement, 30 NP002 patients
[7] = Baseline to Week 10, plus = worsening, 30 NP002 patients
[8] = NP002 Patients Baseline (before treatment)
[9] = NP002 patients at 10 Weeks, up to 24 mg/day orally
[10] = NP002 patients at Baseline (before treatment)

CN1CCCC1c1cccnc1.O=C(O)C(O)C(O)C(=O)O (centres unmarked) [NP002, Nicotine Bitartrate]
UPDRS Part II (ADL) and Part III (Motor Examination) after treatment, NP002 vs placebo ([1]; 10 weeks): no significant differences
Falls (UPDRS Part II Question 13), number of patients with change -3 ([1]; Baseline to Week 10, 5-point scale, minus = improvement, 30 NP002 patients): 1
FOG (UPDRS Part II Question 14), number of patients with No Change [1, 5]: 17
FOG (UPDRS Part II Question 14), number of patients with change +2 [1, 5]: 0
FOG (UPDRS Part II Question 14), number of patients with change +3 [1, 5]: 0
FOG (UPDRS Part II Question 14), number of patients with change -1 [1, 5]: 10
FOG (UPDRS Part II Question 14), number of patients with change -2 [1, 5]: 2
Falls (UPDRS Part II Question 13), number of patients with No Change [1, 5]: 16
Falls (UPDRS Part II Question 13), number of patients with change +2 [1, 5]: 0
Falls (UPDRS Part II Question 13), number of patients with change +3 [1, 5]: 0
Falls (UPDRS Part II Question 13), number of patients with change -1 [1, 5]: 7
Falls (UPDRS Part II Question 13), number of patients with change -2 [1, 5]: 5
Pull Test (Item 30 of the UPDRS Part III), number of patients with No Change [1, 5]: 19
Pull Test (Item 30 of the UPDRS Part III), number of patients with change +2 [1, 5]: 0
Pull Test (Item 30 of the UPDRS Part III), number of patients with change +3 [1, 5]: 0
Pull Test (Item 30 of the UPDRS Part III), number of patients with change -1 [1, 5]: 5
Pull Test (Item 30 of the UPDRS Part III), number of patients with change -2 [1, 5]: 5
FOG (UPDRS Part II Question 14), number of patients with change -3 [1, 6]: 0
Pull Test (Item 30 of the UPDRS Part III), number of patients with change -3 [1, 6]: 0
FOG (UPDRS Part II Question 14), number of patients with change +1 [1, 7]: 1
Falls (UPDRS Part II Question 13), number of patients with change +1 [1, 7]: 1
Pull Test (Item 30 of the UPDRS Part III), number of patients with change +1 [1, 7]: 1
patients with a reduction in falls ([1]; Fourteen of 30 NP002 patients, p=0.00857 vs placebo): 47%
Total Score UDysRS [1, 8]: 51.7 +/-16.9
UDysRS Evaluation of Dyskinesias on 7 Body Parts [1, 8]: 13.5 +/-5.4
UDysRS Evaluation of Dyskinesias on Ambulation [1, 8]: 9.5 +/- 6.0
UDysRS Evaluation of Dyskinesias on Communication [1, 8]: 10.5 +/-4.8
UDysRS Evaluation of Dyskinesias on Dressing [1, 8]: 11.3 +/-6.2
UDysRS Evaluation of Dyskinesias on Drinking [1, 8]: 9.1 +/- 5.6
Total Score UDysRS ([1]; NP002 Patients Week 10): 36.4 +/-16.1
UDysRS Evaluation of Dyskinesias on 7 Body Parts ([1]; NP002 Patients Week 10): 8.5 +/- 5.4
UDysRS Evaluation of Dyskinesias on Ambulation ([1]; NP002 Patients Week 10): 5.1 +/- 5.3
UDysRS Evaluation of Dyskinesias on Communication ([1]; NP002 Patients Week 10): 7.0 +/- 5.0
UDysRS Evaluation of Dyskinesias on Dressing ([1]; NP002 Patients Week 10): 6.9 +/- 5.5
UDysRS Evaluation of Dyskinesias on Drinking ([1]; NP002 Patients Week 10): 5.3 +/- 5.0
UPDRS II [1, 9]: 10.1 ± 5.3
UPDRS III [1, 9]: 17.3 ± 10.6
UPDRS II [1, 10]: 13.1 ± 6.0
UPDRS III [1, 10]: 20.0 ± 8.8
Difference in LS Means 95% Confidence Interval, UPDRS Part III ([1]; NP002 versus Placebo, p-value 0.337): -18.3 ± 1.8 (-5.8, 2.0)
Difference in LS Means 95% Confidence Interval, UPDRS Part II ([1]; NP002 versus Placebo, p-value 0.631): 10.1 ± 0.96 (-3.2, 2.0)
UDysRS Evaluation of Dyskinesias on Ambulation, Difference LS Means ([1]; NP002 vs placebo, p-value 0.011*): -3.7 +/-1.9
UDysRS Evaluation of Dyskinesias on 7 Body Parts, Difference LS Means ([1]; NP002 vs placebo, p-value 0.062): -2.8 +/-2.6
Total Score UDysRS, Difference LS Means ([1]; NP002 vs placebo, p-value 0.092): -6.7 +/-4.1
UDysRS Evaluation of Dyskinesias on Dressing, Difference LS Means ([1]; NP002 vs placebo, p-value 0.139): -2.1 +/-1.4
UDysRS Evaluation of Dyskinesias on Drinking, Difference LS Means ([1]; NP002 vs placebo, p-value 0.171): -2.4 +/-1.7
UDysRS Evaluation of Dyskinesias on Communication, Difference LS Means ([1]; NP002 vs placebo, p-value 0.189): -1.9 +/-1.4
patients with a reduction in retropulsion ([1]; Ten of 30 NP002 patients, p=0.0228 vs placebo): 33.3%
patients with a reduction in FOG ([1]; Twelve of 30 NP002 patients, p=0.04301 vs placebo): 40%
PGI-C responders (subjects with a score of 1, 2, or 3) ([1]; Visit 4 (Week 10), 21 responders, p = 0.0048 vs placebo): 77.8%
UPDRS II Change ([1]; baseline to 10 weeks): 2.8 + 5.2
UPDRS III Change ([1]; baseline to 10 weeks): 2.0 + 7.5
patient- and physician-rated assessments of efficacy versus placebo ([1]; human, in vivo): superior to placebo
patients with either a reduction or absence of FOG during the active phase ([1]; human, in vivo): ~73%
patients with either a reduction or absence of falls during the active phase ([1]; human, in vivo): ~87%
patients with no FOG during the study ([1]; of 30 NP002 patients): 10
patients with no falls during the study ([1]; of 30 NP002 patients): 12
reduction (improvement) in the effect of LIDs on ambulation, UDysRS ambulation subtest ([1]; p=0.011 vs placebo): 46%
reduction in LIDs, Total UDysRS ([1]; p=0.092 vs placebo): 39%
Adverse Event: Constipation ([2]; N=35): 5 (14.3) Number (%)
Adverse Event: Diarrhea ([2]; N=35): 2 (5.7) Number (%)
Adverse Event: Dizziness ([2]; N=35): 7 (20.0) Number (%)
Adverse Event: Fatigue ([2]; N=35): 3 (8.6) Number (%)
Adverse Event: Headache ([2]; N=35): 2 (5.7) Number (%)
Adverse Event: Insomnia ([2]; N=35): 0 (0.0) Number (%)
Adverse Event: Nausea ([2]; N=35): 13 (37.1) Number (%)
Adverse Event: Nightmare ([2]; N=35): 2 (5.7) Number (%)
Adverse Event: Pain ([2]; N=35): 3 (8.6) Number (%)
Adverse Event: Pain in extremity ([2]; N=35): 2 (5.7) Number (%)
Adverse Event: Tremor ([2]; N=35): 2 (5.7) Number (%)
Adverse Event: Vomiting ([2]; N=35): 4 (11.4) Number (%)
Number (%) of subject with any AE ([2]; N=35): 26 (74.3) Number (%)
Serum cotinine levels ([2]; compliance check): paralleled dosing of nicotine
adverse events reported ([2]; number of events among NP002 patients): 45
Primary reason for study discontinuation: Adverse event ([2]; of 35 randomized): 6 (17.1) n (%)
Primary reason for study discontinuation: Protocol violation ([2]; of 35 randomized): 2 (5.7) n (%)
Subjects who completed study per protocol ([2]; of 35 randomized): 25 (71.4) n (%)
Subjects who discontinued the study ([2]; of 35 randomized): 10 (28.6) n (%)
subjects who completed the study ([2]; of 35 randomized): 25 subjects
subjects who withdrew because of AEs ([2]; of 35 randomized): 6 subjects
subjects who withdrew because of protocol violations ([2]; of 35 randomized): 2 subjects
subjects who withdrew from the study ([2]; of 35 randomized): 10 subjects
Primary reason for study discontinuation: Other ([2]; subject going on vacation, of 35 randomized): 2 (5.7) n (%)
Subjects who required dose reduction or discontinuation of study treatment ([2]; treated subjects with any adverse events with action taken = reduced/discontinued study drug, of 35 randomized): 7 (20.0) n (%)
time by which the plasma concentration of nicotine returns close to baseline [3]: ~ 6 hours
Tmax [4]: ~1.5 h

Reference: EP3727043B1 (Golden Gait Biotech, S.L., priority 2017, dated 2019)
